Reference: US5336677A, “Substituted aminopyrimidines as antihypertensives” (American Home Products Corporation, priority 1992, dated 1994)
Where a name gives a salt, the structure may show the parent alone.

What follows are compounds tested on A II-infused rat (assay: A II-infused rat model, antihypertensive action). Conditions: 3 mg/kg id (duodenal); four hours post-administration; ganglion-blocked (mecamylamine), A II infusion 0.25 μg/kg/min.
Assay type: in vivo
Method: In accordance with their ability to antagonize angiotensin II, the compounds of this invention show antihypertensive action in the following A II-infused rat model. Rats are anesthetized with Dial-Urethane (0.60 mL/kg, ip) and the trachea cannulated with PE 240. Either one femoral artery and both femoral veins or the carotid artery and the corresponding jugular vein are cannulated with PE 50. If the jugular vein is cannulated, two cannulas are placed in the one vein. The initial portion of the duodenum (just distal to the stomach) is cannulated with PE 50 via a small midline incision. Arterial pressure and heart rate are measured from the arterial cannula. Ten to 15 min are allowed following surgery for stabilization of arterial pressure. Ganglion blockade is then produced by intravenous administration of mecamylamine at 3 mg/kg (1 mL/kg of a 3 mg/mL solution). Ganglion blockade causes a fall in arterial pressure of about 50 mmHg. Mecamylamine is given every 90 min throughout the remainder of the experiment. An A II infusion is then begun into the other venous cannula at 0.25 μg/kg/min (at 9.6 u Vmin). The A II infusion returns arterial pressure to or slightly above the control level. Once arterial pressure has stabilized with the A II infusion, baseline values for mean arterial pressure (MAP) and heart rate are taken. […]
With `Cc1nc(NCc2ccc(-c3ccccc3-c3nnn[nH]3)cc2)cc(C(F)(F)C(F)(F)F)n1` [Example 47, 2-Methyl-6-(pentafluoroethyl)-N-[[2'-(1H-tetrazol-5-yl)[1,1'-biphenyl]-4-yl]methyl]-4-pyrimidinamine sodium salt hydrate] the “lowering of the A II dependent blood pressure (average)” value was 57%.

These compounds were tested against angiotensin II receptor (assay: rat adrenal receptor binding assay, displacement of radiolabeled angiotensin II (Inhibition of 125I Angiotensin II Binding)). Conditions: rat adrenal cortex membranes; 1 nM 125I-A II; 25° C.; 35 min.
Method: The high affinity of the compounds for the angiotensin II receptor was established using a rat adrenal receptor binding assay, measuring the displacement of radiolabeled angiotensin II from the receptor, described as follows: Anesthetize male Sprague-Dawley rats (300-400 g body weight) with CO2 and sacrifice by cervical dislocation. Dissect adrenal glands and keep in ice-cold sucrose buffer. (0.2M sucrose, 1 mM EDTA, 10 mM Trizma base, pH=7.2). Remove medulla by squashing. Mince the cortex, rinse and homogenize in a chilled ground glass tissue grinder with 15 ml sucrose buffer. Centrifuge at 3000× g for 10 min. (Sorvall RCSC centrifuge, SS34 rotor 6200 rpm). Decant supernatant through gauze. Centrifuge combined supernatants at 12,000× g for 13 min. (Beckman ultracentrifuge, 80Ti rotor, 13,000 rpm). […] (Beckman ultracentrifuge, 80Ti rotor, 38,200 rpm). All steps are carried out at 4° C. Resuspend the pellet in 0.5 mL assay buffer (50 mM Tris HCI, 5 mM MgCl2, 0.2% BSA (protease-free), pH= 7.4, 25° C.). Store on ice. Determine membrane protein by Lowry or Bradford assay with BSA as standard. The binding assay is performed in triplicate, in 12×75 mm plastic test tubes or in 96-well plate (final volume of 0.25 mL). Add 140 μL assay buffer. […] Add 50 μL membrane suspension (e.g., 10 μg protein). Preincubate for 30 min at 25° C. […] Incubate for 35 min at 25° C. Stop the incubation by adding 1 mL ice-cold buffer (assay buffer without BSA). Filter with GF/C filters on cell harvester (filters are presoaked in the assay buffer containing 1% polyethyleneimine). Rinse assay tubes 3× with 5 mL cold buffer (assay buffer without BSA). Cut and deposit the filter discs into test tubes and count on gamma counter for 1 min. […] Calculate the quantities of hot A II and the cold A II needed and make the dilution. Aliquot, seal tight, and store frozen until needed. Calculate the concentration of the total A II (hot+cold) after dilution. On the day of assay, thaw the frozen aliquot and adjust the volume to give a concentration of 5 pmole/mL (or 0.25 pmole/50 μL) with assay buffer (+protease-free BSA).
`CCCc1c(C)nc(C(F)(F)F)nc1NCc1ccc(-c2ccccc2-c2nnn[nH]2)cc1` [Example 34, 6-Methyl-5-propyl-N-[[2'-(1H-tetrazol-5-yl)[1,1'-biphenyl]-4-yl]methyl]-2-(trifluoromethyl)-4-pyrimidinamine sodium salt hemihydrate] was tested, and the IC50 was 25 nM. With `Cc1nc(C(F)(F)F)nc(NCc2ccc(-c3ccccc3-c3nnn[nH]3)cc2)c1C(C)C` [Example 35, 6-Methyl-5-(1-methylethyl)-N-[[2'-(1H-tetrazol-5-yl)[1,1'-biphenyl]-4-yl]methyl]-2-(trifluoromethyl)-4-pyrimidinamine sodium salt sesquihydrate] the IC50 was 3 nM. For `CCc1cc(NCc2ccc(-c3ccccc3-c3nnn[nH]3)cc2)nc(C(F)(F)F)n1` [Example 36, 6-Ethyl-N-[[2'-(1H-tetrazol-5-yl)[1,1'-biphenyl]-4-yl]methyl]-2-(trifluoromethyl)-4-pyrimidinamine sodium salt sesquihydrate], the IC50 was 5.6 nM. `FC(F)(F)C(F)(F)c1cc(NCc2ccc(-c3ccccc3-c3nnn[nH]3)cc2)nc(C2CC2)n1` [Example 37, 2-Cyclopropyl-6-(pentafluoroethyl)-N-[[2'-(1H-tetrazol-5-yl)[1,1'-biphenyl]-4-yl]methyl]-4-pyrimidinamine hydrate] showed an IC50 of 39 nM. In the case of `CCc1cc(NCc2ccc(-c3ccccc3-c3nnn[nH]3)cc2)nc(C)n1` [Example 38, 6-Ethyl-2-methyl-N-[[2'-(1H-tetrazol-5-yl)[1,1'-biphenyl]-4-yl]methyl]-4-pyrimidinamine acetate trihydrate], the IC50 is reported as 7.8 nM. In the case of `CCCc1cnc(C(F)(F)F)nc1NCc1ccc(-c2ccccc2-c2nnn[nH]2)cc1` [Example 39, 5-Propyl-N-[[2'-(1H-tetrazol-5-yl)[1,1'-biphenyl]-4-yl]methyl]-2-(trifluoromethyl)-4-pyrimidinamine sodium salt hydrate], the IC50 is reported as 49 nM. `CCc1nc(C(F)(F)F)nc(NCc2ccc(-c3ccccc3-c3nnn[nH]3)cc2)c1C(C)C` [Example 40, 6-Ethyl-5-(1-methylethyl)-N-[[2'-1H-tetrazol-5-yl)[1,1'-biphenyl]-4-yl]methyl]-2-(trifluoromethyl)-4-pyrimidinamine sodium salt] showed an IC50 of 6.5 nM. Compound `Cc1cccc(Cc2c(NCc3ccc(-c4ccccc4-c4nnn[nH]4)cc3)nc(C)nc2C(F)(F)F)c1` [Example 42, 2-Methyl-5-[(3-methylphenyl)methyl]-N-[[2'-(1H-tetrazol-5-yl)[1,1'-biphenyl]-4-yl]methyl]-6-(trifluoromethyl)-4-pyrimidinamine sodium salt] has an IC50 of 41 nM. `CCc1c(NCc2ccc(-c3ccccc3-c3nnn[nH]3)cc2)nc(C)nc1C(F)(F)C(F)(F)F` [Example 43, 5-Ethyl-2-methyl-N-[[2'-(1H-tetrazol-5-yl)[1,1'-biphenyl]-4-yl]methyl]-6-(pentafluoroethyl)-4-pyrimidinamine sodium salt hydrate] gave an IC50 of 11 nM. For `Cc1nc(NCc2ccc(-c3ccccc3-c3nnn[nH]3)cc2)c(C)c(C(F)(F)F)n1` [Example 44, 2,5-Dimethyl-N-[[2'-(1H-tetrazol-5-yl)[1,1'-biphenyl]-4-yl]methyl]-6-(trifluoromethyl)-4-pyrimidinamine hemihydrate], the IC50 was 20 nM. `Cc1nc(C(F)(F)F)nc(NCc2ccc(-c3ccccc3-c3nnn[nH]3)cc2)c1Cc1ccccc1` [Example 45, 6-Methyl-5-(phenylmethyl)-N-[[2'-(1H-tetrazol-5-yl)[1,1'-biphenyl]-4-yl]methyl]-2-(trifluoromethyl)-4-pyrimidinamine sodium salt hydrate] was tested, and the IC50 was 48 nM. `CCCc1c(CC)nc(C(F)(F)F)nc1NCc1ccc(-c2ccccc2-c2nnn[nH]2)cc1` [Example 46, 6-Ethyl-5-propyl-N-[[2'-(1H-tetrazol-5-yl)[1,1'-biphenyl]-4-yl]methyl]-2-(trifluoromethyl)-4-pyrimidinamine sodium salt] gave an IC50 of 2.5 nM. With `Cc1nc(NCc2ccc(-c3ccccc3-c3nnn[nH]3)cc2)cc(C(F)(F)C(F)(F)F)n1` [Example 47, 2-Methyl-6-(pentafluoroethyl)-N-[[2'-(1H-tetrazol-5-yl)[1,1'-biphenyl]-4-yl]methyl]-4-pyrimidinamine sodium salt hydrate] the IC50 was 38 nM. `Cc1nc(NCc2ccc(-c3ccccc3-c3nnn[nH]3)cc2)cc(C(F)(F)F)n1` [Example 48, 2-Methyl-N-[[2'-(1H-tetrazol-5-yl)[1,1'-biphenyl]-4-yl]methyl]-6-(trifluoromethyl)-4-pyrimidinamine hydrate] gave an IC50 of 61 nM. With `Cc1nc(NCc2ccc(-c3ccccc3C(=O)O)cc2)cc(C(F)(F)C(F)(F)F)n1` [Example 50, 4'-[[[2-Methyl-6-(pentafluoroethyl)-4-pyrimidinyl]amino]methyl][1,1'-biphenyl]-2-carboxylic acid hemihydrate] the IC50 was 330 nM. `Cc1nc(NCc2ccc(-c3ccccc3C(=O)O)cc2)cc(C(F)(F)F)n1` [Example 51, 4'-[[[2-Methyl-6-(trifluoromethyl)-4-pyrimidinyl]amino]methyl][1,1'-biphenyl]-2-carboxylic acid sesquihydrate] gave an IC50 of 850 nM. Work on `Cc1cc(NCc2ccc(-c3ccccc3C(=O)O)cc2)nc(C(F)(F)F)n1` [Example 52, 4'-[[[6-Methyl-2-(trifluoromethyl)-4-pyrimidinyl]amino]methyl][1,1'-biphenyl]-2-carboxylic acid] yielded an IC50 of 500 nM. Compound `C=CCc1c(C)nc(C)nc1NCc1ccc(-c2ccccc2-c2nnn[nH]2)cc1` [Example 53, 2,6-Dimethyl-5-(2-propenyl)-N-[(2'-(1H-tetrazol-5-yl)[1,1-biphenyl]-4-yl)methyl]-4-pyrimidinamine] has an IC50 of 7.5 nM. Work on `C=CCc1c(C)nc(C(F)(F)F)nc1NCc1ccc(-c2ccccc2-c2nnn[nH]2)cc1` [Example 54] yielded an IC50 of 16 nM. For `Cc1nc(C)c(Cc2cccs2)c(NCc2ccc(-c3ccccc3-c3nnn[nH]3)cc2)n1` [Example 55, 2,6-Dimethyl-5-(2-thienylmethyl)-N-[(2'-(1H-tetrazol-5-yl)[1,1-biphenyl]-4-yl)methyl]-4-pyrimidinamine], the IC50 was 58 nM. `Cc1nc(C)c(CC(=O)O)c(NCc2ccc(-c3ccccc3-c3nnn[nH]3)cc2)n1` [Example 56, [2,6-Dimethyl-N-[(2'-(1H-tetrazol-5-yl)[1,1-biphenyl]-4-yl)methyl]-4-pyrimidinamin-5-yl]acetic acid] was tested, and the IC50 was 200 nM. `C#CCc1c(C)nc(C)nc1NCc1ccc(-c2ccccc2-c2nnn[nH]2)cc1` [Example 57, 2,6-Dimethyl-5-(2-propynyl)-N-[(2'-(1H-tetrazol-5-yl)[1,1-biphenyl]-4-yl)methyl]-4-pyrimidinamine] was tested, and the IC50 was 39 nM.
